Values quoted from earlier work, collected in patent US20120172427A1, “(Z)-2-CYANO-3-HYDROXY-BUT-2-ENOIC ACID-(4'-TRIFLUOROMETHYLPHENYL)-AMIDE TABLET FORMULATIONS WITH IMPROVED STABILITY” (SANOFI, priority 2009, published 2012).

Legend:
[1] = target: dihydroorotate dehydrogenase (Homo sapiens, UniProt Q02127); settings: Bruneau et al., Biochem. J. 1998
[2] = test system: immune cells and cell lines; settings: wide variety of immune cells and cell lines; literature

Sequence of dihydroorotate dehydrogenase (Q02127 whole entry): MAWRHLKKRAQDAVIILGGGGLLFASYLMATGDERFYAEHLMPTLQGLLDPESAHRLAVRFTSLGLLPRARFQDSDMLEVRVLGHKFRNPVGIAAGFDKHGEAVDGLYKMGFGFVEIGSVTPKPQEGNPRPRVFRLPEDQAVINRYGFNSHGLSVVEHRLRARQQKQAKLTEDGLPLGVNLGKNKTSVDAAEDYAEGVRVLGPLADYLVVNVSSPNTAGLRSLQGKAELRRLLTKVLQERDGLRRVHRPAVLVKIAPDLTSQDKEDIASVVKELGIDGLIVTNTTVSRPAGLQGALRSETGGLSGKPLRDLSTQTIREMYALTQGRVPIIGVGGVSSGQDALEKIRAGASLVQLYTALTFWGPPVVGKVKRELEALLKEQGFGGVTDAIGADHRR

- inhibition of dihydroorotate dehydrogenase [1]: inhibits
Compound: C/C(O)=C(\C#N)C(=O)Nc1ccc(C(F)(F)F)cc1 [Teriflunomide, (Z)-2-cyano-3-hydroxy-but-2-enoic acid-(4′-trifluoromethylphenyl)-amide]
- antiproliferative effects [2]: antiproliferative effects
